Columns and labels:
[1] = system: electric eel AChE; parameters: method as in PMID 31669851; settings: cited from earlier work
[2] = biological target: T1, human histamine H1 receptor (Homo sapiens, UniProt P35367); experiment: [3H]Pyrilamine radioligand binding, CHO-K1 cells stably expressing hH1R; settings: for Selectivity Ki (H1R)/Ki (H3R): hH3R over hH1R
T1 construct: expressed in transfected cells; host or cells: CHO-K1
Procedure: (§1) Radioligand binding studies, using CHO-K1 cells stably expressing the H1R or Sf9 cells transiently expressing the H4R were performed as described previously. [^3H]Pyrilamine (H1R) and [^3H]histamine (H4R) were used as radiolignads. Affinities were determined using at least five different concentrations of tested compounds in triplicate independent experiments.

[3] = system: human AChE; parameters: method as in PMID 31669851; settings: cited from earlier work
[4] = biological target: T2, human histamine H4 receptor (Homo sapiens, UniProt Q9H3N8); experiment: [3H]Histamine radioligand binding, Sf9 cells transiently expressing hH4R; settings: for Selectivity Ki (H4R)/Ki (H3R): hH3R over hH4R
T2 construct: expressed in transfected cells; host or cells: Sf9
T2 sequence (Q9H3N8 whole entry): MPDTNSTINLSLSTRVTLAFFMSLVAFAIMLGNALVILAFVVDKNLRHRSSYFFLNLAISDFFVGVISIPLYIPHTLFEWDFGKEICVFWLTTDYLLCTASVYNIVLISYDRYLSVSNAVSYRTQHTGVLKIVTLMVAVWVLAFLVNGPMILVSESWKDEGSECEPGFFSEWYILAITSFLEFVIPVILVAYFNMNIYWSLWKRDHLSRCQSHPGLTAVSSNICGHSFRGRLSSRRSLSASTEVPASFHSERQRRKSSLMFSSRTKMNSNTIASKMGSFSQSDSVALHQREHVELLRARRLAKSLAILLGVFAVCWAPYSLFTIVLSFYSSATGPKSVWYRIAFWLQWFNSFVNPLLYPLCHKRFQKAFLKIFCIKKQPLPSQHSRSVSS
Procedure: as §1

[5] = system: neuroblastoma SH-SY5Y cells; settings: 1 µM, 24 h pre-treatment; H2O2 (300 μM) and okadaic acid (50 nM); ref 2nd International Conference on Neuroprotection by Drugs, Nutraceuticals and Physical Activity, 9–10 Dec 2021; cited from earlier work
[6] = system: equine BuChE; parameters: method as in PMID 31669851; settings: cited from earlier work
[7] = system: BV-2 cells; experiment: Griess assay (NO/nitrite level) in LPS-treated BV-2 cells; type: cell-based, murine; settings: 6.25 μM, 1 h pretreatment, then 1 μg/ml LPS for 24 h
Procedure: The Griess assay is a colorimetric assay to measure the levels of nitrite (NO2^−) which is one of the primary and stable metabolites of NO. Griess reagent (Sigma-Aldrich, Saint Louis, MO, USA, G4410) was freshly prepared according to the manufacturer's instructions, that is, 1 g was dissolved in ultrapure water and mixed by inversion for about 4 min. For measuring nitric oxide, after an appropriate incubation time, 100 μl of culture medium was transferred to a transparent 96-well plate and mixed with the same volume of Griess reagent. The plate was incubated for 15 min at room temperature and the absorbance was read at 540 nm using the EnSpire microplate reader (PerkinElmer, Massachusetts, USA). Data were analysed by direct comparison based on the average absorbance of LPS treatment, compound treatment or co-treatment with LPS, performed by normalizing treated cells (compound alone or co-treatment with LPS) to LPS-treated cells set as 100%.
(§2) To establish an experimental model of neuroinflammation in vitro, BV-2 cells were cultured in a 96-well plate (2 × 10^4 cells/200 μl/per well) and a 24-well plate (15 × 10^4 cells/500 μl/well) for the MTS assay and the Griess assay or the RT-qPCR experiment, respectively. BV-2 cells were treated for 24 h, 45 h and 69 h with the increasing concentration of LPS (Sigma-Aldrich, Saint Louis, MO, USA, L4391): 0.001; 0.01; 0.1; 1 [μg/ml]. Following LPS stimulation, at each time point, 100 μl of culture medium from each sample was transferred to another plate and mixed with an equal volume of Griess reagent. Simultaneously, on the plate with cells, cell viability was assessed by adding 20 μl of MTS reagent. The cells cultured on a 24-well plate were used for assessing the expression levels of proinflammatory cytokines (IL-1β, IL-6, TNF-α) by RT-qPCR.
Fig. 6 The effect of the compounds tested (E243 and IIIa–IIIc) on nitric oxide (NO) production in BV-2 cells assessed by the Griess assay. BV-2 cells were pretreated for 1 h with indicated compounds at the concentration of 6.25 μM, followed by stimulation with 1 μg/ml LPS for 24 h. Data are expressed as mean ± SEM of two independent experiments, each of which consisted of eight replicates per treatment group and is expressed as a percentage of NO production versus cells treated with LPS (set at 100%). […] Data indicated with ***p < 0.001 (versus vehicle-treated cells) reflect statistically significant differences between the control and experimental groups

[8] = system: BV-2 cells; experiment: MTS cell viability assay; type: cell-based, murine; settings: Mus musculus, 24 h exposure, mean ± SD, read-out: IC50 (inhibition of cell viability)
Procedure: The murine microglial BV-2 cell line was purchased from the Interlab Cell Line Collection (ICLC) cell bank (Genova, Italy). The BV-2 cells were cultured in DMEM/F12 medium (Lonza, BioWhittaker, Walkersville, MD USA, 12-719F) containing 10% of heat-inactivated fetal bovine serum (FBS, Gibco, 10,500–064) in a humidified incubator containing 95% air and 5% CO2 at 37 °C. BV-2 cells were used for experiments at passages 3 to 11. In all experiments, the concentration of FBS was reduced to 5%.
BV-2 cells (2 × 10^4 cells/100 μl/well) were cultured in transparent 96-well plates (TPP, Trasadingen, Switzerland) in DMEM/F12 supplemented with 5% FBS in the presence of dimethylsulfoxide (DMSO ≤ 0.1%, vehicle control, Veh) or increasing doses of tested compounds (0.78 × 10^–6 – 50 × 10^–6 M). Compound treatment was performed for 24 h. After the incubation time, cell viability was examined using an MTS-based [3-(4,5-dimethylthiazol-2-yl)-5-(3-carboxymethoxyphenyl)-2-(4-sulfophenyl)-2 H tetrazolium] CellTiter96® AQueous One Solution Cell Proliferation Assay (Promega, Madison, USA) following the manufacturer’s protocol. Briefly, 20 μl of MTS solution was pipetted into each well containing 100 μl of culture or culture medium without cells (blank control), mixed well and incubated at 37 °C for 55 min. After the appropriate time, the absorbance was measured at 490 nm using the EnSpire microplate reader (PerkinElmer, Massachusetts, USA). IC50 values were calculated with non-linear regression fit to a sigmoidal dose–response curve (log of compound concentration versus normalized response) using GraphPad Prism (v. 4.0.3).
as §2
To avoid the toxic effect of H3R ligands in subsequent studies, an MTS assay was performed to investigate cell viability. BV-2 cells were cultured for 24 h in the presence of an increasing concentration of compounds E243 and IIIa–IIIc (twofold dilutions covered the range from 0.78 × 10^–6 to 50 × 10^–6 M). […]

[9] = system: BV-2 cells; experiment: ELISA of pro-inflammatory cytokines released by LPS-activated BV-2 cells; type: cell-based, murine; settings: for Inhibitory activity on pro-inflammatory cytokine production: LPS-stimulated BV-2 cells, data not shown
Procedure: The concentrations of IL-1β, IL-6, TNF-α, the main inflammatory cytokines, were analysed using commercial ELISA kits (IL-6 ELISA kit, ADI-900–045, TNF-α ELISA kit, ADI-900–047, Enzo, Mouse IL-1 beta ELISA kit, Invitrogen) according to the manufacturer’s instructions. Briefly, at the end of 24 h of incubation with tested compounds, cell culture plates were centrifuged to remove cell debris from the supernatants. Culture medium was collected in Eppendorf tubes and frozen at −80 °C until further analysis.
Fig. 8 Effect of compound IIIc on the production of proinflammatory cytokines by LPS-activated BV-2 cells.

[10] = biological target: T3, human H3 receptor (Homo sapiens, UniProt Q9Y5N1); experiment: [3H]Nα-methylhistamine radioligand binding, CHO-K1 cells stably expressing hH3R
T3 construct: expressed in transfected cells; host or cells: CHO-K1
T3 sequence (Q9Y5N1 whole entry): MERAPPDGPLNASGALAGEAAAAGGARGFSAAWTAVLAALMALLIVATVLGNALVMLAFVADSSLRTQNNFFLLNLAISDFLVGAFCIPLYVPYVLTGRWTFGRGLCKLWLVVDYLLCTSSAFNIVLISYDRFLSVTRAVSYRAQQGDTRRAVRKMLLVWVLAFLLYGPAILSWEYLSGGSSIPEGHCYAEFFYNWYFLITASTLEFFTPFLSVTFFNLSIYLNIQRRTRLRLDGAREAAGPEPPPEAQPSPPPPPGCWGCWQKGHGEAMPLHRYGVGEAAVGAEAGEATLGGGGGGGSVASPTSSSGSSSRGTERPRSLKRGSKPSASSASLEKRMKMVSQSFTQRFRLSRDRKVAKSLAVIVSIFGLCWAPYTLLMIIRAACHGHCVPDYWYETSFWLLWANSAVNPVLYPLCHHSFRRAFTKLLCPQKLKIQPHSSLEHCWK
Procedure: Radioligand binding studies were conducted using CHO-K1 cells stably transfected with the human H3 receptor as we described previously. All assays were carried out in duplicates. [^3H]-N-α-methylhistamine was used as radioligand and (R)(-)-α-methylhistamine was used to define nonspecific binding. Radioactivity was counted in MicroBeta2 scintillation counter (PerkinElmer). Data were fitted to a one-site curve-fitting equation with Prism 6 (GraphPad Software) and Ki values were estimated from the Cheng − Prusoff equation.
Compounds IIIa–IIIc were tested for affinity for human H3R (hH3R) in a radioligand binding assay with N^α-methylhistamine as a radioligand in CHO K1 cells stably expressing hH3R. Results are presented as Ki values with SEM (Table 2). […] However, it is still a very active compound. The affinity for hH3R (stably expressed in HEK293 cells) of compound E243 was recently described.

[11] = system: BV-2 cells; experiment: RT-qPCR of pro-inflammatory cytokine mRNA in LPS-activated BV-2 cells; settings: 6.25 μM, 1 h pretreatment, LPS 1 μg/ml 24 h; on average
[12] = 6.25 μM, 1 h pretreatment, LPS 1 μg/ml 24 h

T1 sequence (P35367 whole entry): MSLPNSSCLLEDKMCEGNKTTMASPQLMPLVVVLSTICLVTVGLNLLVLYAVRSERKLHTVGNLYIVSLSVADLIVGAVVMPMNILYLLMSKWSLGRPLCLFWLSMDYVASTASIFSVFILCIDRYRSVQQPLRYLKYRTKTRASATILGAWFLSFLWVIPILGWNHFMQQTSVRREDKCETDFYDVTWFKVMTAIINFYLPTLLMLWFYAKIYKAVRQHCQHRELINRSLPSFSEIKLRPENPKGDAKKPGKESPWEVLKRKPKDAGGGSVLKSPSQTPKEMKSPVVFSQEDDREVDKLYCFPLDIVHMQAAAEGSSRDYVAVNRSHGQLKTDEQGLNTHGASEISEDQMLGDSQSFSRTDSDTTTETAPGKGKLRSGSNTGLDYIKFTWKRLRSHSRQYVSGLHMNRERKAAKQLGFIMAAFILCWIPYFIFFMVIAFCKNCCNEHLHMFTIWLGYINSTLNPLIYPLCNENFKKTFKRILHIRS

In the case of `Cc1ccc2oc(-c3ccc(OCCCCCCN4CCCCC4)cc3)cc(=O)c2c1` [Compound E243], the IC50 [1] is given as 501 nM, the Ki [2] is given as 1310 ± 128 nM and the “Selectivity Ki (H1R)/Ki (H3R)” value [2] is given as greater than 5. For the same molecule, the IC50 [3] was 360 nM, the Ki [4] was 4440 nM and the “Selectivity Ki (H4R)/Ki (H3R)” value [4] was greater than 19. The “Prevention of ROS production, times compared to neurotoxin-treated cells” value [5] was roughly 2 times, the IC50 [6] was 758 nM and the “Reduction of NO level compared to LPS treated cells” value (shortened to “Reduction of NO level”) [7] was roughly 30%. The IC50 [8] was 53500 ± 5560 nM.
With `COc1ccc(/C=C/C(=O)c2ccc(OCCCN3CCCCC3)cc2)cc1.Cl` [IIIa, (E)-3-(4-Methoxyphenyl)-1-(4-(3-(piperidin-1-yl)propoxy)phenyl)prop-2-en-1-one hydrogen chloride] the “Inhibitory activity on pro-inflammatory cytokine production” value [9] was “have not shown inhibitory activity”, the Ki [10] was 14 ± 0.2 nM and the melting point was 174 to 177 °C. The “Reduction of NO level” value [7] was roughly 30% and the IC50 [8] was 21200 ± 1980 nM.
In the case of `COc1ccc(/C=C/C(=O)c2ccc(OCCCN3CCCCC3)cc2)cc1OC.Cl` [IIIb, (E)-3-(3,4-Dimethoxyphenyl)-1-(4-(3-(piperidin-1-yl)propoxy)phenyl)prop-2-en-1-one hydrogen chloride], the Ki [2] is reported as 1080 nM, the “Selectivity Ki (H1R)/Ki (H3R)” value [2] is reported as greater than 112 and the Ki [4] is reported as 12500 nM. The “Selectivity Ki (H4R)/Ki (H3R)” value [4] was greater than 1300, the “Inhibitory activity on pro-inflammatory cytokine production” value [9] was “have not shown inhibitory activity” and the Ki [10] was 9.6 ± 0.2 nM. For the same molecule, the melting point was 173 to 176 °C, the “Reduction of NO level” value [7] was roughly 30% and the IC50 [8] was 26700 ± 3480 nM.
In the case of `COc1cc(/C=C/C(=O)c2ccc(OCCCN3CCCCC3)cc2)cc(OC)c1OC.Cl` [IIIc, (E)-3-(3,4,5-Trimethoxyphenyl)-1-(4-(3-(piperidin-1-yl)propoxy)phenyl)prop-2-en-1-one hydrogen chloride], the Ki [2] is reported as 2700 nM, the “Selectivity Ki (H1R)/Ki (H3R)” value [2] is reported as greater than 112 and the “IL-1β mRNA level, times lower than induced by LPS alone” value [11] is reported as roughly 2 times. For the same molecule, the “TNF-α mRNA level, times lower than induced by LPS alone” value [11] was roughly 3 times, the Ki [4] was 2820 nM and the “Selectivity Ki (H4R)/Ki (H3R)” value [4] was greater than 117. For the same molecule, the “Release of IL-1β compared to LPS-stimulated BV-2 cells” value [9, 12] was “significantly lower”, the “Release of IL-6 compared to LPS-stimulated BV-2 cells” value [9, 12] was “significantly lower” and the “Release of TNF-α compared to LPS-stimulated BV-2 cells” value [9, 12] was “significantly lower”. The Ki [10] was 24 ± 1.1 nM, the “Reduction of NO level” value [7] was 61% and the IC50 [8] was 11300 ± 3260 nM.
